# Measured values published in US4474764A, “3-Amino-2-hydroxy-4-phenylbutanoic acid derivatives and pharmaceutical composition containing the same” (Zaidan Hojin Biseibutsu Kagaku Kenkyu Kai, priority 1981, dated 1984).
# Assays:
# enkephalinase = target: T1, enkephalinase (Rattus norvegicus, UniProt P07861); test: Inhibitory activity against enkephalinase (Test 1); format: biochemical; details: enkephalinase from corpus striatum of rat brain; substrate methionine-enkephaline; 37° C., 1 hour; pH 7.7
# T1 construct: homogenizing corpus striatum of rat brain and by partial purification of the brain homogenate; from tissue; host or cells: rat brain corpus striatum, homogenate partially purified by the method of Gorenstein et al
# T1 sequence (P07861 1-750): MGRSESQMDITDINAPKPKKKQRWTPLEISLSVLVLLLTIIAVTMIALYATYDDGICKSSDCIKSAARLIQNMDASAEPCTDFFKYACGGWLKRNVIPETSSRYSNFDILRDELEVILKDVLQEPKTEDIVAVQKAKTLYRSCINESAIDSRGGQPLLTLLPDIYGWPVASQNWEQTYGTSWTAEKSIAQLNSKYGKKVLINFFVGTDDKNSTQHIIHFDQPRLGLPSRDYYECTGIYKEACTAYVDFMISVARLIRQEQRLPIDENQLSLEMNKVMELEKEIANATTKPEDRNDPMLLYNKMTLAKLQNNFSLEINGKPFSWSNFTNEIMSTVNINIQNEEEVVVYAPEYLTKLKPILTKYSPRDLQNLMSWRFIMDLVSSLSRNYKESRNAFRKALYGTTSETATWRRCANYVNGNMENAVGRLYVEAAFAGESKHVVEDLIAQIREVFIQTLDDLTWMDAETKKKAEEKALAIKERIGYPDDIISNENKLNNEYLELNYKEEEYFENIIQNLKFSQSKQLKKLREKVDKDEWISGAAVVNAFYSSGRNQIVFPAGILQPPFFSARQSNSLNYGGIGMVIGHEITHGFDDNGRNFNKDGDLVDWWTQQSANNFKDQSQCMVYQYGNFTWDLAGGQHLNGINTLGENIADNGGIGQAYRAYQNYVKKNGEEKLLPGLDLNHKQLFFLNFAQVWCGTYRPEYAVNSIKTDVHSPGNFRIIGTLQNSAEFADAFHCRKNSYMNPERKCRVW
# Method: Inhibitory activity against enkephalinase were tested.
# A preparation of enkephalinase was made by homogenizing corpus striatum of rat brain and by partial purification of the brain homogenate according to the method of Gorenstein et al (see the "Life Science" Vol. 25, 2065~2070 (1979) Pergamon Press, U.S.A.).
# A test compound was dissolved in a mixture of Trishydrochloride buffered solution (pH 7.7) and an aqueous 1% Triton X100 (an active surfectant) to such a concentration that the added quantity of the test compound amounted to one-tenth of the volume of said mixture. To the solution of the test compound so prepared was added the enkephalinase, followed by incubation for five minutes at ambient temperature and further by addition of methionine-enkephaline as the substrate. The admixture so obtained was incubated at 37° C. for 1 hour and then subjected to a high-performance liquid chromatography in such a manner that the Tyr-Gly-GLy (a fragment of the methionine-enkephaline) formed by the enzymatic degradation of methionine-enkephaline was isolated in some fractions of the eluate and the quantity of Tyr-Gly-GLy was determined by an electro-chemically analysing detector. In this way, IC50 value of the test compound, namely the dose of the test compound required for 50% inhibition of the enkephalinase was measured.
# mice of ddy-strain = test: Analgesic activity by the acetic acid-writhing method (Test 3); format: in vivo, mouse; details: for Number of Writhings (Average value ± standard error): 30 minutes before 0.6% acetic acid i.p., counted during 15 minutes; for Suppression of writhing reactions: compared to the control group
# From the text: Analgesic activity of test compound was estimated according to the acetic acid-writhing method.
# Mice groups each containing 10 mice of ddy-strain (male, 5 weeks-aged, average body weight about 20 grams) were employed as the test animal. A suspension of the test compound, D-Phe-AHPA suspended in an aqueous solution containing 0.5% of gum arabic and 7% of an active surfectant (consisting of the reaction products of hydrogenated castor oil with polyoxyethylene, commercially available under a registered tradename "Nikkol HCO-60", a product of Nihon Nyukazai Co., Ltd., Japan) was subcutaneously injected into each mouse at a dosage of 30, 150 or 250 mg/kg of the test compound. The above-mentioned suspension so subcutaneously injected was containing the test compound at such a concentration that 0.2 ml of said suspension as injected into each mouse provided the dosage of 30 mg/kg, 150 mg/kg or 250 mg/kg of the test compound. 30 Minutes later, […] of an aqueous solution of 0.6% of acetic acid was injected intraperitoneally into the mice. 5 Minutes after the injection of the aqueous acetic acid, estimation was commenced to count the number of the writhing reaction of the treated mice (the motions such as abdominal constrictions and extensions of the treated mice as induced by the injection of acetic acid) which took place during the subsequent 15 minutes (see the Japanese medical book "Iyaku Kaihatsu Koza" Vol. 5 pages 282~286, published from Chijin-Shokan in 1971 and an English medicinal journal "Brit. J. Pharmacol." 32, pages 295~310, 1968). For control, another mice groups received the subcutaneous administration of an aqueous solution containing no test compound but containing 0.5% of gum arabic and 7% of the active surfectant (Nikkol HCO-60). The rate (%) of suppressing the writhing reactions was evaluated as compared to the control group. "Students-t-test" was employed for the statistical analysis of the test results.
# [1] = test system: morphine analgesia-non-effective Wistar rats; test: Effect of enhancing morphine analgesia, tail-flick latency (Test 2); format: in vivo, rat
# Method: Effect of enhancing morphine analgesia was tested.
# To Wistar rats (10 week-age, male, body weight 250~300 g) was given intraperitoneally morphine at a dose of 0.5 mg/kg, and these rats receiving the morphine were classified into the group of morphine analgesia-effective rats and the group of morphine analgesia-non-effectiverats according to the classification method described in the "Showa Igakukai Zasshi" Vol. 39, No. 5, pages 537~542 (1979). […] The effect of analgesia was evaluated according to the method of tail-flick latency of rats described in the "Showa Igakukai Zasshi" Vol. 39, No. 5, pages 537~542 (1979). The evaluation of pain threshold of rats according to the tail-flick latency method was made as follows: Radiant heat stimulus was applied to the region of the rat tail which positioned 1 cm away from the tail tip and which had been colored black with a black-dye, and the time of latency involved in the tail flick, namely the period of time lapsing between the time of application of the heat stimulus and the time of the reflective flick response of the tail was measured. The quantity of the heat applied was so controlled that the average time of latency of the tail-flick response appearing in the control group of rats (receiving neither the test compound nor the morphine) was about 2.0 seconds. The tests were accomplished as long as the maximum value for the tail-flick latency was 7.0 seconds or less, as otherwise the skin of the rat tail could be damaged by the application of heat. In other words, if the time for the tail-flick latency was longer than 7.0 seconds, the tests were stopped to prevent the damage of the rat tail. The radiant heat stimulus was repeated 5 times for each test rat at an interval of 15 minutes and the times of latency in the flick response of the tail measured in each test were averaged. In each test, 5 rats were used.
# The difference in the time of the tail-flick latency between the test rats (receiving 250 mg/kg of the test compound plus 0.5 mg/kg of morphine) and the control rats (receiving 0.5 mg/kg of morphine alone) was calculated, and the effect for enhancement of morphine analgesia was estimated in term of the value of percentages which were calculated by the following equation: [formula]
# [2] = test system: morphine analgesia-non-effective Wistar rats; test: as above; format: in vivo, rat; remark: listed apart in the source
# [3] = 250 mg/kg test compound i.p., 10 minutes later 0.5 mg/kg morphine i.p., versus 0.5 mg/kg morphine alone, tail-flick latency
smiles,measurement,setting,value
"N[C@H](Cc1ccccc1)C(=O)N[C@H](Cc1ccccc1)[C@H](O)C(=O)O [Compound 10, (2S,3R)-3-N--(R)-phenylalanylamino-2-hydroxy-4-phenylbutanoic acid]",IC50,enkephalinase,740 µM
same,Number of Writhings (Average value ± standard error),mice of ddy-strain; 30 mg/kg s.c.,48.3 ± 3.7
same,Suppression of writhing reactions,mice of ddy-strain; 30 mg/kg s.c.,37.4%
same,Number of Writhings (Average value ± standard error),mice of ddy-strain; 150 mg/kg s.c.,43.9 ± 3.8
same,Suppression of writhing reactions,mice of ddy-strain; 150 mg/kg s.c.,43.1%
same,Number of Writhings (Average value ± standard error),mice of ddy-strain; 250 mg/kg s.c.,31.3 ± 8.0
same,Suppression of writhing reactions,mice of ddy-strain; 250 mg/kg s.c.,59.4%
same,Dose dependence of suppression of acetic acid-writhing reaction,"mice of ddy-strain; 30, 150 or 250 mg/kg s.c., compound alone",suppressed the acetic acid-writhing reaction in the dosage-depending manner
same,Morphine Analgesia enhancement,[1]; [3],35.0%
"CN1CC[C@]23c4c5ccc(O)c4O[C@H]2[C@@H](O)C=C[C@H]3[C@H]1C5 [Morphine, morphine]",Morphine Analgesia enhancement,[1]; morphine alone 0.5 mg/kg (comparative),0%
same,Morphine Analgesia enhancement,[2]; morphine alone 2 mg/kg (comparative),28.4%
same,Morphine Analgesia enhancement,[2]; morphine alone 3 mg/kg (comparative),35.1%
"NCC(=O)N[C@H](Cc1ccccc1)[C@H](O)C(=O)O [Compound 1, (2S,3R)-3-N--glycylamino-2-hydroxy-4-phenylbutanoic acid]",IC50,enkephalinase,2780 µM
same,Morphine Analgesia enhancement,[1]; [3],25.7%
"N[C@H](Cc1ccccc1)[C@H](O)C(=O)N[C@H](Cc1ccccc1)[C@H](O)C(=O)O [Compound 12, (2S,3R)-3-N--[(2'S,3'R)-3'-amino-2'-hydroxy-4'-phenylbutanoyl]amino-2-hydroxy-4-phenylbutanoic acid]",IC50,enkephalinase,> 20000 µM
same,Morphine Analgesia enhancement,[1]; [3],15.7%
"N[C@@H](Cc1ccc(O)cc1)C(=O)NCC(=O)NCC(=O)N[C@@H](Cc1ccccc1)[C@@H](O)C(=O)O [Compound 16, (2R,3S)--3-N--(S)--tyrosylglycylglycylamino-2-hydroxy-4-phenylbutanoic acid]",IC50,enkephalinase,440 µM
same,Morphine Analgesia enhancement,[1]; [3],15.2%
